Laboratory results from patent US8450374B2, “Pan-antagonists for the androgen receptor and androgen receptor mutants associated with anti-androgen withdrawal” (priority 2009, dated 2013).
Changes are numbered by the printed parent chain.

Key:
AR wt [1] = molecular target: T1, AR wt (Homo sapiens, UniProt P10275); experiment: Transcription assay (ARE-luciferase reporter) in CV-1 cells, wild-type AR; format: cell-based; parameters: expressed in transfected cells; host or cells: CV-1; details: for Antagonist efficacy (RLU value at IC50), AR wt: in competition with 3 nM DHT, normalized to 10 nM DHT in hAR(wt)
T1 sequence (P10275 1-920): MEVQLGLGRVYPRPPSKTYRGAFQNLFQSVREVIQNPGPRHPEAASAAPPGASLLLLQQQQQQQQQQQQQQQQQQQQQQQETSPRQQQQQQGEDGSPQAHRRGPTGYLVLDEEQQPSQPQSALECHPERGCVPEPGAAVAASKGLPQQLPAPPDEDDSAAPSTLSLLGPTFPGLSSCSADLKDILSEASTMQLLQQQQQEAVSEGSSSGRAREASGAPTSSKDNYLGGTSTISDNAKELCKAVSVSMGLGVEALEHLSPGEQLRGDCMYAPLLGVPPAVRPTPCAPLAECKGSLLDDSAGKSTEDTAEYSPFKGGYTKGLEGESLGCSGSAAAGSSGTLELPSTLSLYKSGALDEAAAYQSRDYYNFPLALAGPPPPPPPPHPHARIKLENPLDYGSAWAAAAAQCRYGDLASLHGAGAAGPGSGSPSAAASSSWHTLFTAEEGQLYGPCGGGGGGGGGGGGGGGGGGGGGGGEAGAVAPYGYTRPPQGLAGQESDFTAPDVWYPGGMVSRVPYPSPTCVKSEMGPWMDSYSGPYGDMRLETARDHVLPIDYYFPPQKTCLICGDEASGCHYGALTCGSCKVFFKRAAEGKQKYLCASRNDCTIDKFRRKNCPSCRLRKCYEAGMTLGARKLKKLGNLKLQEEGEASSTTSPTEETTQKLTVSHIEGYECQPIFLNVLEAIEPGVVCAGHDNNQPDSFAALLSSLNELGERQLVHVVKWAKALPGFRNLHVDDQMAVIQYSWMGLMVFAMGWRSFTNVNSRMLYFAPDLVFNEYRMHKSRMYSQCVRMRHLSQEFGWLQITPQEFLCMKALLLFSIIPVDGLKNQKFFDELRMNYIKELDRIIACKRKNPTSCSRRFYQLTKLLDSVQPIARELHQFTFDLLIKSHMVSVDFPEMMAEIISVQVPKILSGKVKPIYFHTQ
Procedure: Twenty-four hours prior to transfection, CV-1 cells were seeded at a density of 45,000 cells per well in 24-well cell culture plates and grown in phenol red free Dulbecco's Modified Eagle Medium (DMEM) supplemented with 10% cosmic calf serum (COS). ARE-luciferase reporter and Renilla-Luc as the internal standard and a prokaryotic expression vector encoding the wild-type androgen receptor or mutant androgen receptor were transfected with Lipofectamine (Invitrogen) following manufacturer's protocol. Five hours after transfection, media was added containing the appropriate concentrations of ligands. The cells were allowed to incubate for 38 hours before harvesting by passive lysis buffer. Cell extracts were immediately assayed using the Dual Luciferase Assay (Promega) with a Perkin-Elmer Microbeta Luminometer. […] Dose-response data was analyzed by nonlinear regression analysis using GraphPad Prism.

AR wt [2] = molecular target: T1, AR wt; experiment: Competitive binding assay, [3H]DHT, transfected COS-7 cells, wild-type AR; parameters: expressed in transfected cells; host or cells: COS-7; details: 8 nM [3H]-DHT, read-out: Binding affinity (Ki), AR wt
Procedure: (§1) Twenty-four hours prior to transfection, COS-7 cells were seeded at a density of 70,000 cells per well in 24-well cell culture plates and grown in phenol red free Dulbecco's Modified Eagle Medium (DMEM) supplement with 10% cosmic calf serum (CCS). The cells were transfected with a prokaryotic expression vector encoding the wild-type androgen receptor or mutant androgen receptor using Lipofectamine (Invitrogen) following manufacturer's protocol. […] Cells were washed with PBS and harvested in 2% SDS, 10% glycerol, and 10 mM Tris, pH 6.8, and radioactivity determined by scintillation counting.

AR W741C = molecular target: T2, AR W741C (Homo sapiens, UniProt P10275, W742C); experiment: Competitive binding assay, [3H]DHT, transfected COS-7 cells, AR W741C; parameters: expressed in transfected cells; host or cells: COS-7; details: 75 nM [3H]-DHT, read-out: Binding affinity (Ki), AR W741C
T2 sequence (P10275 1-920 W742C): T1 sequence (P10275 1-920) with W742C
Procedure: as §1

SMILES	IC50 (AR wt [1]) [µM]	Antagonist efficacy (RLU value at IC50), AR wt (AR wt [1])	Ki (AR wt [2]) [µM]	Ki (AR W741C) [µM]
CN(C)CCCOc1cccc(Cc2ccccc2S(=O)(=O)CC(C)(O)C(=O)Nc2ccc(C#N)c(C(F)(F)F)c2)c1 (centres unmarked) [PAN22]	2 ± 2.2	(50% ± 30%)	2.3	9.8
CC(O)(CS(=O)(=O)c1ccccc1-c1ccccc1O)C(=O)Nc1ccc(C#N)c(C(F)(F)F)c1 (centres unmarked) [PAN41, N-(4-cyano-3-(trifluoromethyl)phenyl)-2-hydroxy-3-(2′-hydroxybiphenyl-2-ylsulfonyl)-2-methylpropanamide]	1.2 ± 0.5	(45% ± 14%)	–	–
CN(C)CCCOc1cccc(-c2ccccc2S(=O)(=O)CC(C)(O)C(=O)Nc2ccc(C#N)c(C(F)(F)F)c2)c1 (centres unmarked) [PAN52]	3.5 ± 2	(49% ± 4.4%)	3	7.3
CN(C)CCCOc1ccc(-c2ccccc2S(=O)(=O)CC(C)(O)C(=O)Nc2ccc(C#N)c(C(F)(F)F)c2)cc1 (centres unmarked) [PAN62]	2.3 ± 0.9	(51% ± 9.1%)	25	2.62
